Results: ChEMBL document CHEMBL1201862, “PubChem BioAssay data set” (2004)
Values joined by “and” are separate entries in the source; they are usually repeats but may differ in a detail not shown here. Equal entries are not always repeated.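 Step 1: Grow cells in 96-well plates. Step 2: Expose to compound for 48 hours at 5 concentrations. Step 3: Interpolate endpoints linearly; if unreached, use highest concentration. GI50 = concentration required for 50% inhibition of growth.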 Active and inactive are the calls of the source. No stated cut-off is given here; in the data, active = GI50 up to about 1.1 µM and inactive = higher.

Columns and labels:
Assay in all cases: NCI tumour cell line growth inhibition, 48 h
[1] = tested on: 786-0
[2] = tested on: A549
[3] = tested on: BT-549
[4] = tested on: CAKI-1
[5] = tested on: HL-60
[6] = tested on: K562
[7] = tested on: LOX IMVI
[8] = tested on: M14
[9] = tested on: MDA-N
[10] = tested on: MOLT-4
[11] = tested on: Malme-3M
[12] = tested on: NCI-H23
[13] = tested on: NCI-H522
[14] = tested on: NCI/ADR-RES
[15] = tested on: OVCAR-3
[16] = tested on: SF-539
[17] = tested on: T47D
[18] = tested on: TK-10
[19] = tested on: KM12

| SMILES | GI50 [1] | GI50 [2] | GI50 [3] | GI50 [4] | GI50 [5] | GI50 [6] | GI50 [7] | GI50 [8] | GI50 [9] | GI50 [10] | GI50 [11] | GI50 [12] | GI50 [13] | GI50 [14] | GI50 [15] | GI50 [16] | GI50 [17] | GI50 [18] | GI50 [19] |
| --- | --- | --- | --- | --- | --- | --- | --- | --- | --- | --- | --- | --- | --- | --- | --- | --- | --- | --- | --- |
| O=C(OC1CN2CCC1CC2)N(c1ccccc1)c1ccccc1 (stereo unspecified) | > 100 µM (inactive) | > 100 µM (inactive) | > 100 µM (inactive) | > 100 µM (inactive) | 24.9 µM (inactive) | 24.9 µM (inactive) | 38.5 µM (inactive) | 22.9 µM (inactive) | > 100 µM (inactive) | 43.1 µM (inactive) | > 100 µM (inactive) | > 100 µM (inactive) | > 100 µM (inactive) | > 100 µM (inactive) | > 100 µM (inactive) | 68.4 µM (inactive) | > 100 µM (inactive) | 56.2 µM (inactive) | – |
| CCOC(=O)C(=Cc1ccccc1Cl)C(=O)OCC | 1.34 µM (inactive) | 2.21 µM (inactive) | 1.62 µM (inactive) | 2.02 µM (inactive) | 1.23 µM (inactive) | 1.15 µM (inactive) | 1.75 µM (inactive) | 1.5 µM (inactive) | 1.12 µM (active) | 2.52 µM (inactive) | 1.82 µM (inactive) | 1.66 µM (inactive) | 2.03 µM (inactive) | 2 µM (inactive) | 1.41 µM (inactive) | 2.1 µM (inactive) | 2.64 µM (inactive) | – | 1.31 µM (inactive) |
| S=C1NC2=C(COC/C2=C\c2ccccc2Cl)C(c2ccccc2Cl)N1 (stereo unspecified) | 36 µM (inactive) | – | 48.8 µM (inactive) | 73.8 µM (inactive) | 11.4 µM (inactive) | 14.9 µM (inactive) | 21.2 µM (inactive) | 25.8 µM (inactive) | 32.7 µM (inactive) | 7.5 µM (inactive) | – | 34.9 µM (inactive) | 29.6 µM (inactive) | 21.2 µM (inactive) | 32.1 µM (inactive) | 34.9 µM (inactive) | 41.5 µM (inactive) | 55.8 µM (inactive) | 11 µM (inactive) |
| Cc1nc2c(Br)cc(Br)cc2c(=O)n1-c1ccccc1NC1OC(CO)C(O)C(O)C1O (stereo unspecified) | > 100 µM (inactive) | – | > 100 µM (inactive) | > 100 µM (inactive) | > 100 µM (inactive) | > 100 µM (inactive) | > 100 µM (inactive) | > 100 µM (inactive) | > 100 µM (inactive) | > 100 µM (inactive) and 79.1 µM (inactive) | > 100 µM (inactive) | > 100 µM (inactive) | > 100 µM (inactive) | > 100 µM (inactive) | > 100 µM (inactive) | > 100 µM (inactive) | > 100 µM (inactive) | > 100 µM (inactive) | > 100 µM (inactive) |
